Results published in US20030225007A1, “Sulfonamide derivatives of 3-substituted imidazol[1,2-d]-1,2,4-thiadiazoles and 3-substituted-[1,2,4] thiadiazolo[4,5-a] benzimidazole as inhibitors of fibrin cross-linking and transglutaminases” (Apotex Inc., priority 2002, published 2003).
Like-named read-outs stand apart in the source and are kept apart here.

Target: T1, Factor XIIIa (activated FXIII) (Homo sapiens, UniProt P00488)
T1 construct: purchased Enzyme Research Laboratories, Ltd
T1 sequence (P00488 39-732 limits assumed): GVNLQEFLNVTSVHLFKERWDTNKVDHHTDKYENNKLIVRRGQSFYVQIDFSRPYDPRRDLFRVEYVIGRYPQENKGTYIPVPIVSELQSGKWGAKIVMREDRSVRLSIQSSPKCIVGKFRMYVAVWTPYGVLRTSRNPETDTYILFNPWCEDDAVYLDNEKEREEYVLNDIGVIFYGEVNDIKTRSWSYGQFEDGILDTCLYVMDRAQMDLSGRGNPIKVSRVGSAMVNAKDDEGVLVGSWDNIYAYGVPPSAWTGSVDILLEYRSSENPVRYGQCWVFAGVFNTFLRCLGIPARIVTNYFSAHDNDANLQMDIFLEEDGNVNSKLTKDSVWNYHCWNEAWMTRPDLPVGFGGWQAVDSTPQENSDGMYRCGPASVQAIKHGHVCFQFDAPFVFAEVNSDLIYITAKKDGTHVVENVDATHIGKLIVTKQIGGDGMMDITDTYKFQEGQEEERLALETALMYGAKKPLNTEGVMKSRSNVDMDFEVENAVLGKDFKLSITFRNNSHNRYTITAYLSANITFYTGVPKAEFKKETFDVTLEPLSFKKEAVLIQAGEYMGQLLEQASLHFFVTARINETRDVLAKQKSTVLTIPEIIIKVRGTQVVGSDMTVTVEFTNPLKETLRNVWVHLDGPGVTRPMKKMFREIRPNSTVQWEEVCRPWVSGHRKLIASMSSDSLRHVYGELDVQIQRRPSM
Experiment: Inactivation of purified Factor XIIIa (monodansylcadaverine incorporation into dimethylcasein, fluorescence)
Assay type: biochemical
Settings: for kinact/KI: purified Factor XIIIa, method of Kitz and Wilson, read-out: Second order rate constant for inactivation
In short: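 Read-out: fluorescence rise (360/500 nm) as 20 μM monodansylcadaverine is built into dimethylcasein at pH 8.0, 10 mM CaCl2. This measures activity left after a 5-min, 37° C., substrate-free exposure of thrombin-activated FXIII to inhibitor. IC50 means 50% inactivation under those conditions; rate constants by Kitz-Wilson method.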

[1] = purified activated FXIII, 50% enzyme inactivation after 5-min incubation with inhibitor at 37° C. in the absence of substrate, read-out: FXIIIa (IC50 in μM)
[2] = values without asterisk, purified FXIIIa, 5-min incubation, read-out: FXIIIa IC50 determined by method in Example 16

Compound | kinact/KI [M⁻¹ s⁻¹] | IC50 [1] [µM] | IC50 [2] [µM]
O=S(=O)(NCCCCCCNc1nsc2nccn12)c1cccc2ccccc12 [1-naphthyl, N-[6-(imidazo[1,2-d][1,2,4]thiadiazol-3-ylamino)hexyl]naphthalene-1-sulfonamide] | 3300 | 0.52 | 0.52
O=S(=O)(Cc1ccccc1)NCCCCCCNc1nsc2nccn12 [2 / CH2Ph, N-[6-(imidazo[1,2-d][1,2,4]thiadiazol-3-ylamino)hexyl]-1-phenylmethanesulfonamide] | – | – | 7.8
O=S(=O)(NCCCCCCNc1nsc2nccn12)c1ccc(F)cc1F [2,4-diF-Ph, 2,4-difluoro-N-[6-(imidazo[1,2-d][1,2,4]thiadiazol-3-ylamino)hexyl]benzenesulfonamide] | – | 1.4 | 1.4
O=S(=O)(NCCCCCCNc1nsc2nccn12)c1ccc(OC(F)(F)F)cc1 [4-OCF3-Ph, N-[6-(imidazo[1,2-d][1,2,4]thiadiazol-3-ylamino)hexyl]-4-trifluoromethoxybenzenesulfonamide] | – | – | 1.6
O=C(O)CN(CCCCCCNS(=O)(=O)c1ccccc1[N+](=O)[O-])c1nsc2nccn12 [H / CH2CO2H / 2-NO2-Ph, N-imidazo[1,2-d][1,2,4]thiadiazol-3-yl-N-(6-{[(2-nitrophenyl)sulfonyl]amino}hexyl)glycine] | 4500 | 0.62 | 0.62
